This note sets out measurements from patent publication US20170066717A1, “NEW PHENYLAZETIDINECARBOXYLATE OR -CARBOXAMIDE COMPOUNDS” (INVENTIVA, priority 2014, published 2017).

One series has as its target T1, NURR-1/RXRα (Homo sapiens, UniProt P19793).
T1 construct: expressed in transfected cells; host or cells: Cos-7 cells
Description: Transactivation test, NURR-1-Gal4/RXRα, luciferase reporter in Cos-7 cells. The series is classed as cell-based. As to conditions: for Emax: COS-7, induction level relative to reference XCT0135908 at 2×10^−5 M (=100%), read-out: hNurr1_RXRaFL Emax (%); for EC50: Cos-7 cells, NURR-1-Gal4/RXRα, luciferase reporter, read-out: hNurr1_RXRaFL EC50; for hNurr1_RXRaFL Emax (%): induction level relative to reference XCT0135908 at 2×10^−5 M (=100%). A general note: Reporter assays use an easily measured gene product as a stand-in for the process of interest.

For the next series, the target named is T2, NURR-1/RXRγ (Homo sapiens, UniProt P48443).
T2 construct: expressed in transfected cells; host or cells: Cos-7 cells
Description: Transactivation test, NURR-1-Gal4/RXRγ, luciferase reporter in Cos-7 cells. Format: cell-based. Particulars: for Emax: COS-7, induction level relative to reference XCT0135908 at 2×10^−5 M (=100%), read-out: hNurr1_RXRgFL Emax (%); for EC50: Cos-7 cells, NURR-1-Gal4/RXRγ, luciferase reporter, read-out: hNurr1_RXRgFL EC50; for hNurr1_RXRgFL Emax (%): induction level relative to reference XCT0135908 at 2×10^−5 M (=100%).

Some results are limits rather than exact numbers.

T2 sequence (P48443 whole entry): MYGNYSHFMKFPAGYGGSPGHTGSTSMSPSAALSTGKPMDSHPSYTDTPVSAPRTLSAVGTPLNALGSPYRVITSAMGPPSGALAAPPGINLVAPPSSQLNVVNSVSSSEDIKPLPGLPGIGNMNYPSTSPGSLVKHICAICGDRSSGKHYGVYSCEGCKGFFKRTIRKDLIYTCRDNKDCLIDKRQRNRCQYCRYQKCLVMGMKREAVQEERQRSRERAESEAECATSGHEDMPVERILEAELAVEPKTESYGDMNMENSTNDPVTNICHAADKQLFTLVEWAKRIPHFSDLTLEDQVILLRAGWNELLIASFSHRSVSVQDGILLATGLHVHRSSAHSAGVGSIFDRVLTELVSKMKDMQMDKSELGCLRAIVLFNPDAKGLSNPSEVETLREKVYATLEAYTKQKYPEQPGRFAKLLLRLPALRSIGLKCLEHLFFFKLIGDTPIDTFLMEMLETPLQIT
T2 sequence (P43354 whole entry partner): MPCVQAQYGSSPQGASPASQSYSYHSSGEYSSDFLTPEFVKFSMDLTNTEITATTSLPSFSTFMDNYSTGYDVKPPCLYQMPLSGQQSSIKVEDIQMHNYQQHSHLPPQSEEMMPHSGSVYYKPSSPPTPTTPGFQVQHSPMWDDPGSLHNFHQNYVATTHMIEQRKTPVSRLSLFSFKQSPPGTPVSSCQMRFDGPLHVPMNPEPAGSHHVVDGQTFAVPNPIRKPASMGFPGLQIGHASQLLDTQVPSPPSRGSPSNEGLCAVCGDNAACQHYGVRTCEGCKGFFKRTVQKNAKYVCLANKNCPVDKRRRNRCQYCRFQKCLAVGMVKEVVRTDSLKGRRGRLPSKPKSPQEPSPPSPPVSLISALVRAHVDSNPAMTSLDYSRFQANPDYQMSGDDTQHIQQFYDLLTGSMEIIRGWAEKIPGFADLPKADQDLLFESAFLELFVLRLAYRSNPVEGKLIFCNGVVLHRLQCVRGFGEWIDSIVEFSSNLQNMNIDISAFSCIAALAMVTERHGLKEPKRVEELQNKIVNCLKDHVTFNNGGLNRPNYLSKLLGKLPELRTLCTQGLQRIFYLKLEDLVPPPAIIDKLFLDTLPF
T2 sequence (P04386 1-147 partner limits assumed): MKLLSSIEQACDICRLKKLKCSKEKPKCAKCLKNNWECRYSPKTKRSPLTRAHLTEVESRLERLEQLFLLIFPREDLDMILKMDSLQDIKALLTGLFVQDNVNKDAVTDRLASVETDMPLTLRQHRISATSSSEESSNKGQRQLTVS
T1 sequence (P19793 whole entry): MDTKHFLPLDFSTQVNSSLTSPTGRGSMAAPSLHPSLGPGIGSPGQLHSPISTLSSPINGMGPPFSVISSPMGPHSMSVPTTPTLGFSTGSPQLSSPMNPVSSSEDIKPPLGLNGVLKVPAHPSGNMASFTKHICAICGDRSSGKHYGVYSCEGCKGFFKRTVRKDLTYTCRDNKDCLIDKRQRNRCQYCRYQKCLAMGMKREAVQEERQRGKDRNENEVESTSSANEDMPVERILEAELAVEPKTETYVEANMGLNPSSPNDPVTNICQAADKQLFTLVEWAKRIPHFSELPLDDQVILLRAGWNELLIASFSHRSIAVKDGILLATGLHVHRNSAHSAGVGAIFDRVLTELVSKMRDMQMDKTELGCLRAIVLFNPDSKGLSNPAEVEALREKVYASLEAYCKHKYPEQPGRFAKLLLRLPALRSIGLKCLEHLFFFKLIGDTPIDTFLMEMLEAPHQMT
T1 sequence (P43354 whole entry partner): as the sequence (P43354 whole entry partner) above
T1 sequence (P04386 1-147 partner limits assumed): as the sequence (P04386 1-147 partner limits assumed) above

As to `CC1COc2cc(C(F)(F)F)ccc2N1c1cccc(N2CC(C(=O)O)C2)c1` (single isomer, unassigned; isomer 1) [Example 124-1, 1-[3-[3-methyl-7-(trifluoromethyl)-2,3-dihydro-1,4-benzoxazin-4-yl]phenyl]azetidine-3-carboxylic acid, isomer 1], the melting point – broadly, the temperature of the solid-liquid transition – is 61 °C. Also, on NURR-1/RXRα, the maximal response (Emax) (in general, the greatest response seen or fitted, relative to the assay's reference) amounted to 107% and the 50% effective concentration (EC50) (commonly the midpoint of the concentration-response curve) is 118 nM. On NURR-1/RXRγ, the maximum response (Emax) was 101% and the EC50 worked out at 211 nM.

For `CC1(C)CCC2C(C1)c1cc(C(F)(F)F)ccc1N2c1cccc(N2CC(C(=O)O)C2)c1` (single isomer, unassigned; isomer 1) [Example 145-1, 1-[3-[3,3-dimethyl-6-(trifluoromethyl)-2,4,4a,9a-tetrahydro-1H-carbazol-9-yl]phenyl]azetidine-3-carboxylic acid (isomer 1)], the melting point is 84 to 91 °C. On NURR-1/RXRα, the Emax was determined as 82% and the EC50 was 37 nM. For the same compound, on NURR-1/RXRγ, the maximal response (Emax) came to 90% and the 50% effective concentration (EC50) stood at 103 nM.

Turning to `CC1(C)CCC2C(C1)c1cc(C(F)(F)F)ccc1N2c1cccc(N2CC(C(=O)O)C2)c1` (single isomer, unassigned; isomer 2) [Example 145-2, 1-[3-[3,3-dimethyl-6-(trifluoromethyl)-2,4,4a,9a-teterahydro-1H-carbazol-9-yl]phenyl]azetidine-3-carboxylic acid (isomer 2)], the melting point lay within 82 to 94 °C. Besides, on NURR-1/RXRα, the concentration giving a half-maximal response (EC50) stood at 2 nM and the “hNurr1_RXRaFL Emax (%)” value is recorded as 86%. Also, at NURR-1/RXRγ, the EC50 is less than 1 nM and the “hNurr1_RXRgFL Emax (%)” value was 99%.

In turn, `CC(C)CC1Oc2cc(C(F)(F)F)ccc2N(c2cccc(N3CC(C(=O)O)C3)c2)C1=O` (single isomer, unassigned; isomer 2) [Example 246-2, 1-[3-[2-isobutyl-3-oxo-7-(trofluormethyl)-1,4-benzoxazin-4-yl]phenyl]azetidine-3-carboxylic acid, isomer 2] showed a melting point of 57 to 70 °C. On NURR-1/RXRα, the EC50 turned out to be 73 nM and the “hNurr1_RXRaFL Emax (%)” value is recorded as 58%. Also, on NURR-1/RXRγ, the half-maximal effective concentration (EC50) worked out at 126 nM and the “hNurr1_RXRgFL Emax (%)” value stood at 46%.

In turn, `O=C(O)C1CN(c2cccc(-c3cc(C(F)(F)F)cc4c3NCC3(CCC3)O4)c2)C1` [Example 62, 1-[3-[7-(trifluoromethyl)spiro[3,4-dihydro-1,4-benzoxazine-2,1′-cyclobutane]-5-yl]phenyl]azetidine-3-carboxylic acid] displayed a melting point of 80 to 85 °C. Besides, at NURR-1/RXRα, the Emax came to 97% and the EC50 is 4 nM. Further, on NURR-1/RXRγ, the Emax stood at 107% and the concentration for a half-maximal effect (EC50) worked out at 7 nM.

Turning to `CCC1CNc2c(cc(C(F)(F)F)cc2-c2cccc(N3CC(C(=O)O)C3)c2)O1` (centres unmarked) [Example 66, 1-[3-[2-ethyl-7-(trifluoromethyl)-3,4-dihydro-2H-1,4-benzoxazin-5-yl]phenyl]azetidine-3-carboxylic acid], the melting point was 115 to 121 °C. In addition, at NURR-1/RXRα, the maximal response (Emax) turned out to be 98% and the EC50 worked out at 8 nM. For the same compound, at NURR-1/RXRγ, the Emax is 95% and the EC50 was found to be 25 nM.

`Cc1ccc(N2CC(C(=O)O)C2)cc1-c1cccc(C(C)C)c1` [Example 69, 1-[3-(3-isopripylphenyl)-4-methylphenyl]azetidine-3-carboxylic acid] yielded a melting point of 71 to 76 °C. On NURR-1/RXRα, the Emax worked out at 63% and the 50% effective concentration (EC50) worked out at 146 nM. Also, on NURR-1/RXRγ, the maximum response (Emax) turned out to be 57% and the EC50 came to 142 nM.

`CC(C)c1cc2c(c(-c3cccc(N4CC(C(=O)O)C4)c3)c1)C(=O)CC(C)(C)O2` [Example 71, 1-[3-(7-isopropyl-2,2-dimethyl-4-oxochroman-5-yl)phenyl]azetidine-3-carboxylic acid] registered a melting point of 70 to 88 °C. At NURR-1/RXRα, the Emax worked out at 96% and the concentration for a half-maximal effect (EC50) was determined as 326 nM. On NURR-1/RXRγ, the maximal response (Emax) worked out at 101% and the EC50 amounted to 435 nM.

`CCc1noc2cc(C(C)C)cc(-c3cccc(N4CC(C(=O)O)C4)c3)c12` [Example 72, 1-[3-(3-ethyl-6-isopropy;-1,2-benzoxazol-4-yl)phenyl]azetidine-3-carboxylic acid] returned a melting point of 63 to 69 °C. For the same compound, at NURR-1/RXRα, the Emax came to 97% and the EC50 was 7 nM. At NURR-1/RXRγ, the maximal response (Emax) is 112% and the EC50 was determined as 40 nM.

For `O=C(O)C1CN(c2cccc(-c3cc(C(F)(F)F)nc4cc(Cl)ccc34)c2)C1` [Example 82, 1-[3-[7-chloro-2-(trifluoromethyl)-4-quinolyl]phenyl]azetidine-3-carboxylic acid], the melting point was in the range of 98 to 101 °C. In addition, at NURR-1/RXRα, the Emax was 110% and the concentration for a half-maximal effect (EC50) came to 31 nM. At NURR-1/RXRγ, the maximum response (Emax) was 99% and the EC50 came out at 72 nM.

`Cc1cc2c(cc1-c1cccc(N3CC(C(=O)O)C3)c1)C(C)(C)CCC2(C)C` [Example 85, 1-[3-(1,1,4,4,7-pentamethyltetralin-6-yl)phenyl]azetidine-3-carboxylic acid] showed a melting point of 130 to 141 °C. Also, at NURR-1/RXRα, the Emax turned out to be 112% and the half-maximal effective concentration (EC50) stood at 19 nM. In addition, at NURR-1/RXRγ, the Emax was 116% and the EC50 was found to be 49 nM.

`CCc1cc2c(cc1-c1cccc(N3CC(C(=O)O)C3)c1)C(C)(C)CCC2(C)C` [Example 86, 1-[3-(7-ethyl-1,1,4,4,-tetramethyltetralin-6-yl)phenyl]azetidine-3-carboxylic acid] returned a melting point of 78 to 88 °C. Also, at NURR-1/RXRα, the Emax stood at 107% and the concentration giving a half-maximal response (EC50) was determined as 6 nM. Further, at NURR-1/RXRγ, the Emax is 97% and the EC50 is 16 nM.

Regarding `Cc1cc(N2CC(C(=O)O)C2)cc(N2CC(C)(C)Oc3cc(C(F)(F)F)ccc32)c1` [Example 116, 1-[3-[2,2-dimethyl-7-(trifluoromethyl)-3H-1,4-benzoxazin-4-yl]-5-methylphenyl]azetidine-3-carboxylic acid], the melting point fell in the range of 93 to 98 °C. In addition, on NURR-1/RXRα, the maximal response (Emax) came out at 111% and the EC50 worked out at 2 nM. On NURR-1/RXRγ, the Emax stood at 115% and the concentration giving a half-maximal response (EC50) was 1 nM.

`CC1(C)CN(c2cccc(N3CC(C(=O)O)C3)c2)c2ccccc2O1` [Example 119, 1-[3-(2,2-dimethyl-3H-1,4-benzoxazin-4-yl)phenyl]azetidine-3-carboxylic acid]: the melting point lay within 59 to 64 °C. Besides, on NURR-1/RXRα, the Emax is 101% and the half-maximal effective concentration (EC50) is 238 nM. Moreover, at NURR-1/RXRγ, the maximum response (Emax) turned out to be 94% and the EC50 was 512 nM.

For the compound `CC1(C)Oc2cc(C(F)(F)F)ccc2N(c2cccc(N3CC(C(=O)O)C3)c2)C1=O` [Example 120, 1-[3-[2,2-dimethyl-3-oxo-7-(trifluoremethyl)-1,4-benzoxazin-4-yl]phenyl]azetidine-3-carboxylic acid], the melting point lay in the range of 80 to 86 °C. In addition, on NURR-1/RXRα, the Emax was determined as 108% and the EC50 is 20 nM. Moreover, at NURR-1/RXRγ, the maximal response (Emax) stood at 112% and the concentration giving a half-maximal response (EC50) is 34 nM.

With `CCC1Oc2cc(C(F)(F)F)ccc2N(c2cccc(N3CC(C(=O)O)C3)c2)C1=O` (centres unmarked) [Example 123, 1-[3-[2-ethyl-3-oxo-7-(trifluromethyl)-1,4-benzoxazin-4-yl]phenyl]azetidine-3-carboxylic acid], the melting point fell in the range of 148 to 152 °C. For the same compound, at NURR-1/RXRα, the Emax amounted to 90% and the concentration giving a half-maximal response (EC50) stood at 121 nM. On NURR-1/RXRγ, the Emax was 77% and the EC50 was found to be 37 nM.

On to `CC1(C)CCNc2c(cc(C(C)(C)C)cc2-c2cccc(N3CC(C(=O)[O-])C3)c2)O1.[Na+]` [Example 210, sodium 1-[3-(8-tert-butyl-2,2-dimethyl-4,5-dihydro-3H-1,5-benzoxazepin-6-yl)phenyl]azetidine-3-carboxylate], for which the melting point was in the range of 169 to 176 °C. In addition, at NURR-1/RXRα, the maximal response (Emax) was 88% and the EC50 was determined as 75 nM.

The compound `CN1CC(C)(C)Oc2cc(C(C)(C)C)cc(-c3cccc(N4CC(C(=O)[O-])C4)c3)c21.[Na+]` [Example 211, sodium 1-[3-(7-tert-butyl-2,2,4-trimethyl-3H-1,4-benzoxazin-5-yl)phenyl]azetidine-3-carbxoylate] returned a melting point of 245 to 246 °C. At NURR-1/RXRα, the Emax was 94% and the 50% effective concentration (EC50) worked out at 0.91 nM.

Take `CC1(C)C=C(c2cccc(N3CC(C(=O)[O-])C3)c2)c2ccc(C(C)(C)C)cc2O1.[Na+]` [Example 267, sodium 1-[3-(7-tert-butyl-2,2-dimethylchromen-4-yl)phenyl]azetidine-3-carboxylate]: the melting point lay in the range of 212 to 233 °C. Moreover, at NURR-1/RXRα, the Emax came to 115% and the EC50 worked out at 13 nM.

With `O=C([O-])C1CN(c2cccc(C3=CC4(CCC4)Oc4cc(C(F)(F)F)ccc43)c2)C1.[Na+]` [Example 268, sodium 1-[3-[7-(trifluoromethyl)spiro[chromene-2,1′-cyclobutane]-4-yl]phenyl]azetidine-3-carboxylate], the melting point fell in the range of 177 to 191 °C. Besides, on NURR-1/RXRα, the Emax turned out to be 107% and the concentration for a half-maximal effect (EC50) was roughly 1 nM.

`CC1(C)N=C(c2cccc(N3CC(C(=O)[O-])C3)c2)c2ccc(C(F)(F)F)cc2O1.[Na+]` [Example 271, sodium 1-[3-[2,2-dimethyl-7-(trifluoromethyl)-1,3-benzoxazin-4-yl]phenyl]azetidine-3-carboxylate] came in with a melting point of 141 to 146 °C. On NURR-1/RXRα, the Emax worked out at 114% and the concentration for a half-maximal effect (EC50) was determined as 26 nM.
